The results in this text go back to ChEMBL document CHEMBL5352441, “Modulation of FLT3-ITD and CDK9 in acute myeloid leukaemia cells by novel proteolysis targeting chimera (PROTAC)” (2022).

By GI50 is commonly meant the concentration at which growth is held to half of that of the control.

Active and inactive are the calls of the source. The calls are words filed in the database; no cut-off is given here.

In assay [1] the target is Receptor-type tyrosine-protein kinase FLT3 (Homo sapiens) (UniProt P36888). As to the kind of experiment: Inhibition of FLT3 autophosphorylation at Y589/591 residue in human MV4-11 cells at 0.1 to 0.5 uM preincubated for 90 mins with 4-hydroxythalidomide followed by compound addition and further incubated for 16 hrs by immunoblot analysis. It counts as cell-based. The conditions noted are these: dose 0.1-0.5 µM. (A western blot detects proteins with antibodies after separation by electrophoresis.)
Sequence of Receptor-type tyrosine-protein kinase FLT3 (Homo sapiens) (P36888 whole entry): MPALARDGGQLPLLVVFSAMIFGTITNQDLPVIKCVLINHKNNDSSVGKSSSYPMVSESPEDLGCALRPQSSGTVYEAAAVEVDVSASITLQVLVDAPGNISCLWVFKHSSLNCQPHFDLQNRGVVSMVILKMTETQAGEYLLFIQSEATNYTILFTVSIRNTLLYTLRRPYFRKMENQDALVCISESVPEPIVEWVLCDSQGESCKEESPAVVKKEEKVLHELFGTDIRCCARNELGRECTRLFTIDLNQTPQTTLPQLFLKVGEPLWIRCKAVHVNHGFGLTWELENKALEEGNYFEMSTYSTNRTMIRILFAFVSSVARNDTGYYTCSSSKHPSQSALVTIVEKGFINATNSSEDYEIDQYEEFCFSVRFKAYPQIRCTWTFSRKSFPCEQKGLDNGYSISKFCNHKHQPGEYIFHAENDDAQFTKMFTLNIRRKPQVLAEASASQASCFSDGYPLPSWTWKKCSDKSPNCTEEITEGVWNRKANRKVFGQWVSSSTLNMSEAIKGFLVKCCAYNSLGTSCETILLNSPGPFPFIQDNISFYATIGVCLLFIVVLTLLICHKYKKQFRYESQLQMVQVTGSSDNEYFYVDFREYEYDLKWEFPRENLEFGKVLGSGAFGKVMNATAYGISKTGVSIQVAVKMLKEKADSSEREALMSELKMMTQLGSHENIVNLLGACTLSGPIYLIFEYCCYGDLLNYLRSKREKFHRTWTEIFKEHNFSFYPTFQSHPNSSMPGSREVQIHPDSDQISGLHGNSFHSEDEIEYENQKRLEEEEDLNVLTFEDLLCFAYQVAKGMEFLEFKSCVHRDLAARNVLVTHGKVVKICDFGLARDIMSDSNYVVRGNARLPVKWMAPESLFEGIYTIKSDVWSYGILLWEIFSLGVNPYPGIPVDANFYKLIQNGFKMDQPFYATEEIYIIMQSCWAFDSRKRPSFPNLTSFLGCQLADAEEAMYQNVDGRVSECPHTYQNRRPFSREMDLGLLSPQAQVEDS

Assay [2] deals with T1, Protein cereblon/Receptor-type tyrosine-protein kinase FLT3 (Homo sapiens) (UniProt P36888+Q96SW2). As to the kind of experiment: PROTAC activity at CRBN/FLT3 in human MV4-11 cells at 0.1 to 0.5 uM preincubated for 90 mins with MG132 followed by compound addition and further incubated for 16 hrs by immunoblot analysis. It counts as cell-based. The conditions noted are these: dose 0.1-0.5 µM.
T1 sequence (P36888 27-993 limits assumed): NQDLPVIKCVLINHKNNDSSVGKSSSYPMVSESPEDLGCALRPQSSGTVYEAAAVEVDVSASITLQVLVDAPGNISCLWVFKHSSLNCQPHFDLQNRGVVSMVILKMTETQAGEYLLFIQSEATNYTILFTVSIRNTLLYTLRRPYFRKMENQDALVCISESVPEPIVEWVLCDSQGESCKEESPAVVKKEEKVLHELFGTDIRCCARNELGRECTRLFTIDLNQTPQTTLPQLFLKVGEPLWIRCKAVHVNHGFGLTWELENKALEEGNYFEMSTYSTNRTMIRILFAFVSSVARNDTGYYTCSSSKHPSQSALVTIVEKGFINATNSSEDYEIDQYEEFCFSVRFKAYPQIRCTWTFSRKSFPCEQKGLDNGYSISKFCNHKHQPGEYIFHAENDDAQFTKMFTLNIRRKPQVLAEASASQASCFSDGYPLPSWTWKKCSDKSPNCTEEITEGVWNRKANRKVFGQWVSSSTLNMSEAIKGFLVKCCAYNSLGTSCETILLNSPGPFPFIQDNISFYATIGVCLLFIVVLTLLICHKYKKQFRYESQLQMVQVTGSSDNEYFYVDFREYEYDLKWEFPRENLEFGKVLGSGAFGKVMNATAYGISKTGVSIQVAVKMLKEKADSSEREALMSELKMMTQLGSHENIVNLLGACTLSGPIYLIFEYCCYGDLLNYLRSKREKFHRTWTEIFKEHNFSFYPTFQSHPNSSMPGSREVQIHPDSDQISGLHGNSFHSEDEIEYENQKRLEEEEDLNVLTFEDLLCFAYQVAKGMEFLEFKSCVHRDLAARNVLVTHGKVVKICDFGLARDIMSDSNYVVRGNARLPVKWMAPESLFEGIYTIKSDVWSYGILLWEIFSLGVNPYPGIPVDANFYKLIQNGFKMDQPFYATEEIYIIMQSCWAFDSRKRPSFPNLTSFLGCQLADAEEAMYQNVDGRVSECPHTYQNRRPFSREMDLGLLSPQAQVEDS
T1 sequence (Q96SW2 whole entry partner): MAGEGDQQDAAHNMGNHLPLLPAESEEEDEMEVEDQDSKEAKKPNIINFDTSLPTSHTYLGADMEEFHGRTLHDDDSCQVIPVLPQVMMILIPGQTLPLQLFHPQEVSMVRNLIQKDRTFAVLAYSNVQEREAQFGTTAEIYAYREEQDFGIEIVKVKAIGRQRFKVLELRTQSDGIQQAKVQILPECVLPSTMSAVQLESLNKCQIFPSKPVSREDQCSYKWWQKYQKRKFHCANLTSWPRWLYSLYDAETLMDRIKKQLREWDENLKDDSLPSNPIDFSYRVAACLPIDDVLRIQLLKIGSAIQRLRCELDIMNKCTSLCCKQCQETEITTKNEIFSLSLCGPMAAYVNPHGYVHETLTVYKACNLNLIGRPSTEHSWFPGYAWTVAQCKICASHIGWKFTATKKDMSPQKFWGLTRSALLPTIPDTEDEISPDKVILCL

For assay [3], the system named is MV4-11. As to the kind of experiment: Induction of cell cycle arrest in CRBN-deficient human MV4-11 cells assessed as accumulation of cells at S phase at 0.1 uM incubated for 16 hrs by PI staining based flow cytometry analysis (reference value: 36.91%). It counts as functional. On the technique in general: A flow cytometer gives signals particle by particle.
Assay [4] concerns MV4-11. As to the kind of experiment: Induction of cell cycle arrest in human MV4-11 cells assessed as accumulation of cells at subG1 phase at 2.5 uM incubated for 16 hrs by PI staining based flow cytometry analysis (reference value: 10.51%). It counts as functional.
For assay [5], the system named is MV4-11. As to the kind of experiment: Induction of apoptosis in human MV4-11 cells assessed as activation of caspase 7 at 0.1 to 0.5 uM preincubated for 90 mins with 4-hydroxythalidomide followed by compound addition and further incubated for 16 hrs in presence of Ac-DEVD-AMC by fluorescence microplate reader analysis. It counts as functional, cell-based. The conditions noted are these: dose 0.1-0.5 µM.

The subject of assay [6] is MV4-11. As to the kind of experiment: Induction of apoptosis in CRBN-deficient human MV4-11 cells assessed as activation of caspase 7 at 0.004 to 25 uM incubated for 16 hrs in presence of Ac-DEVD-AMC by fluorescence microplate reader analysis. It counts as functional, cell-based. The conditions noted are these: dose 0.004-25 µM.
Assay [7] has as its target T1, Protein cereblon/Receptor-type tyrosine-protein kinase FLT3 (Homo sapiens). As to the kind of experiment: PROTAC activity at CRBN/FLT3 in human MV4-11 cells harboring FLT3-ITD mutation assessed as induction of protein degradation at […] incubated for 16 hrs by immunoblot analysis. Type of assay: cell-based.
The nature of assay [8]: Selectivity index, ratio of GI50 for antiproliferative activity against CRBN-deficient human MV4-11 cells to GI50 for antiproliferative activity against human MV4-11 cells harboring FLT3-ITD mutation. It counts as functional.
Assay [9] concerns MV4-11. As to the kind of experiment: Induction of cell cycle arrest in human MV4-11 cells assessed as accumulation of cells at G1 phase at 0.02 uM incubated for 16 hrs by PI staining based flow cytometry analysis (reference value: 62.97%). It counts as functional.
Assay [10] has as its system MV4-11. As to the kind of experiment: Antiproliferative activity against human MV4-11 cells harboring FLT3-ITD mutation assessed as cell growth inhibition incubated for 72 hrs by resazurin dye based fluorescence analysis. It counts as functional. In general terms: The colour change of resazurin is a common sign of viable cells or microbes.
For assay [11], the system named is MV4-11. As to the kind of experiment: Induction of cell cycle arrest in human MV4-11 cells assessed as accumulation of cells at S phase at 0.02 uM incubated for 16 hrs by PI staining based flow cytometry analysis (reference value: 26.16%). Type of assay: functional.
The subject of assay [12] is MV4-11. As to the kind of experiment: Downregulation of MCL-1 gene expression in human MV4-11 cells incubated for 4 hrs by qRT-PCR analysis. Type of assay: functional, cell-based. The conditions noted are these: dose 0.004-2.5 µM.
Assay [13] addresses Protein cereblon/Cyclin-dependent kinase 9 (Homo sapiens) (UniProt P50750+Q96SW2). As to the kind of experiment: PROTAC activity at CRBN/CDK9 in human MV4-11 cells harboring FLT3-ITD mutation assessed as induction of protein degradation incubated for 16 hrs by immunoblot analysis. Type of assay: cell-based. The conditions noted are these: dose 0.004-2.5 µM.
Assay [14] has as its system MV4-11. As to the kind of experiment: Induction of cell cycle arrest in human MV4-11 cells assessed as accumulation of cells at S phase at 2.5 uM incubated for 16 hrs by PI staining based flow cytometry analysis (reference value: 26.16%). Type of assay: functional.
For assay [15], the system named is MV4-11. As to the kind of experiment: Induction of cell cycle arrest in CRBN-deficient human MV4-11 cells assessed as accumulation of cells at S phase at 0.02 uM incubated for 16 hrs by PI staining based flow cytometry analysis (reference value: 36.91%). It counts as functional.
Assay [16] has as its system MV4-11. As to the kind of experiment: Induction of apoptosis in human MV4-11 cells assessed as activation of caspase 7 incubated for 16 hrs in presence of Ac-DEVD-AMC by fluorescence microplate reader analysis. It counts as functional, cell-based. The conditions noted are these: dose 0.004-2.5 µM.
Assay [17] concerns MV4-11. As to the kind of experiment: Induction of cell cycle arrest in human MV4-11 cells assessed as accumulation of cells at subG1 phase at 0.1 uM incubated for 16 hrs by PI staining based flow cytometry analysis (reference value: 10.51%). Type of assay: functional.
Assay [18] deals with Receptor-type tyrosine-protein kinase FLT3 (Homo sapiens) (UniProt P36888). As to the kind of experiment: Inhibition of FLT3 signalling pathway in human MV4-11 cells assessed as reduction in ERK1/2 phosphorylation at T202/Y204 residues at 0.1 to 0.5 uM preincubated for 90 mins with 4-hydroxythalidomide followed by compound addition and further incubated for 16 hrs by immunoblot analysis. Type of assay: cell-based. The conditions noted are these: dose 0.1-0.5 µM.

Assay [19] relates to MV4-11. As to the kind of experiment: Induction of cell cycle arrest in CRBN-deficient human MV4-11 cells assessed as accumulation of cells at G1 phase at 0.1 uM incubated for 16 hrs by PI staining based flow cytometry analysis (reference value: 54.05%). It counts as functional.
In assay [20] the test system is MV4-11. As to the kind of experiment: Induction of cell cycle arrest in human MV4-11 cells assessed as accumulation of cells at G2/M phase at 0.004 uM incubated for 16 hrs by PI staining based flow cytometry analysis (reference value: 10.86%). Type of assay: functional.
The target of assay [21] is T1, Protein cereblon/Receptor-type tyrosine-protein kinase FLT3 (Homo sapiens). As to the kind of experiment: PROTAC activity at CRBN/FLT3 in CRBN-deficient human MV4-11 cells assessed as induction of protein degradation at 0.004 to 2.5 uM incubated for 16 hrs by immunoblot analysis. The conditions noted are these: dose 0.004-2.5 µM. Type of assay: cell-based.

Sequence of Protein cereblon/Cyclin-dependent kinase 9 (Homo sapiens) (P50750 whole entry, looked up): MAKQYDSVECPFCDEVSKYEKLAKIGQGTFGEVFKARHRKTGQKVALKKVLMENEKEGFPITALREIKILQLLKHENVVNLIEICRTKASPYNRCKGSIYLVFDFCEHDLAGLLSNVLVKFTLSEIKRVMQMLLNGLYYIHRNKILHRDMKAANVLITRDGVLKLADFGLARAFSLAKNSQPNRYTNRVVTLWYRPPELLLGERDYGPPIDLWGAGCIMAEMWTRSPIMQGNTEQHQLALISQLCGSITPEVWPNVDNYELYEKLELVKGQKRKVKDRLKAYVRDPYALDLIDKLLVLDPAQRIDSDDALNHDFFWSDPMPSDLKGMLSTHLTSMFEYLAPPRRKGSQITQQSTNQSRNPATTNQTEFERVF
Sequence of Protein cereblon/Cyclin-dependent kinase 9 (Homo sapiens) (Q96SW2 whole entry, looked up): as the sequence (Q96SW2 whole entry partner) above

Regarding `NC1CCC(Nc2nc(Nc3ccc(N4CCN(CCOCCOCCNC(=O)CNc5cccc6c5C(=O)N(C5CCC(=O)NC5=O)C6=O)CC4)cc3)c3ncn(C4CCCC4)c3n2)CC1` (stereo unspecified), the inhibition entry in assay [1] and in assay [18] was “Active” each time. The outcome (in assay [2]; with MV4-11 [5]; with MV4-11 [6]; in [21]) was inactive. The Activity is 6.07% in the assay with MV4-11 [3]; 79.82% with MV4-11 [4]; 82.36% in the assay with MV4-11 [9]; 12.41% in the assay on MV4-11 [11]; “Dose-Dependent Effect” in the assay on MV4-11 [12]; “Dose-Dependent Effect” in assay [13]. For the same molecule, the Activity is 34.87% with MV4-11 [14]; 17.04% in the assay on MV4-11 [15]; “Dose-Dependent Effect” in the assay on MV4-11 [16]; 20.86% in the assay with MV4-11 [17]; 90.54% with MV4-11 [19]; 9.03% with MV4-11 [20]. Moreover, the result in assay [7] was Active. Besides, the RatioGI50 in assay [8] is recorded as 2. In the assay with MV4-11 [10], the GI50 was 47 nM.
